Results: patent US6051712A, “Piperidine derivatives having renin inhibiting activity” (Hoffmann-La Roche Inc., priority 1995, dated 2000)
pIC50: −log10 of the molar value. Where a name gives a salt, the structure may show the parent alone.

Target: T1, human renin (Homo sapiens, UniProt P00797)
T1 sequence (P00797 67-406): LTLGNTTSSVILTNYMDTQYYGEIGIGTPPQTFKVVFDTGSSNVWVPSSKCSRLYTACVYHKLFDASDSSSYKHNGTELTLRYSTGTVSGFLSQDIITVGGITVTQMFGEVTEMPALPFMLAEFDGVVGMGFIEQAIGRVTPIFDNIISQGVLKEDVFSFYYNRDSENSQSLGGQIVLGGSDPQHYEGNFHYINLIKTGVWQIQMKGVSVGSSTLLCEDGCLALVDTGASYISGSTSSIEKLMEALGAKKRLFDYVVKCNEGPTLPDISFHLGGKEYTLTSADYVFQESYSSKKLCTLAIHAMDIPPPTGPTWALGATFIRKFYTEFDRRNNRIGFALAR
Assay: In vitro test with pure human renin (angiotensin I production from human tetradecapeptide renin substrate, measured by RIA)
Assay type: biochemical
Settings: pure human renin, pH 7.4, three hours at 37° C. (less 4° C.), human tetradecapeptide substrate, angiotensin I by RIA; read-out: IC50 values (concentration of the inhibitor at which the enzymatic activity is inhibited by 50%)
Procedure: In vitro test with pure human renin
The test is carried out in Eppendorf test tubes. The incubation mixture consists of (1) 100 μl of human renin in buffer A (0.1M sodium phosphate solution, pH 7.4, containing 0.1% bovine serum albumin, 0.1% sodium azide and 1 mM ethylenediaminetetraacetic acid), sufficient for a renin activity of 2-3 ng of angiotensin l/ml/hr.; (2) 145 μl of buffer A: (3) 30 μl of 10 mM human tetradecapeptide renin substrate (hTD) in 10 mM hydrochloric acid: (4) […] of dimethyl sulphoxide with or without inhibitor and (5) 10 μl of a 0.03 molar solution of hydroxyquinoline sulphate in water.
The samples are incubated for three hours at 37° C. and, respectively, 4° C. in triplicate. 2×100 μl samples per test tube are used in order to measure the production of angiotensin I via RIA (standard radioimmunoassay; clinical assay solid phase kit). […] The production of angiotensin I is determined by the difference between the test at 37° C, and that at 4° C.
The following controls are carried out:
(a) Incubation of hTD samples without renin and without inhibitor at 37° C. and 4° C. The difference between these two values gives the base value of the angiotensin I production.
(b) Incubation of hTD samples with renin, but without inhibitor at 37° C. and 4° C. The difference between these values gives the maximum value of the angiotensin I production.
In each sample the base value of the angiotensin I production is subtracted from the angiotensin I production which is determined. The difference between the maximum value and the base value gives the value of the maximum substrate hydrolysis (=100%) by renin.
The IC50 values are determined from a linear regression curve from a logit-log plot.

Structure (SMILES) | pIC50
COC[C@@H]1CNC[C@H](OCc2ccc3ccccc3c2)[C@H]1c1ccc(COCc2ccccc2)cc1 (racemic) [J, (3SR,4RS,5RS)-4-(4-benzyloxymethyl-phenyl)-3-methoxymethyl-5-(naphthalen-2-ylmethoxy)-piperidine] | 7.77
OCC(O)COCCOc1ccc2ccc(CO[C@H]3CNCC[C@@H]3c3ccc(OCCCOCc4ccccc4)cc3)cc2c1 (mixture of isomers) [P, a mixture of (RS)- and (SR)-3-[2-[7-[(3RS,4RS)-4-[4-(3-benzyloxy-propoxy)-phenyl]-piperidin-3-yloxymethyl]-naphthalen-2-yloxy]-ethoxy]-propane-1,2-diol hydrochloride (1:1)] | 8.22
c1ccc(-c2cc(COc3ccc([C@H]4CCNC[C@@H]4OCc4ccc5ccccc5c4)cc3)on2)cc1 (racemic) [F, (3RS,4RS)-3-(naphthalen-2-ylmethoxy)-4-[4-(3-phenyl-isoxazol-5-ylmethoxy)-phenyl]-piperidine trifluoroacetate] | 7.24
Fc1ccc([C@H]2CCNC[C@@H]2OCc2cc(OCc3ccccc3)c3ccccc3c2)cc1 [RR, (3R,4R)3-(4-Benzyloxy-naphthalen-2-ylmethoxy)-4-(4-fluoro-phenyl)-piperidne] | 6.57
CN1CCN(CCOc2ccc3ccc(CO[C@H]4CNCC[C@@H]4c4ccc(OCCCOCc5ccccc5)cc4)cc3c2)CC1 (racemic) [Q, 1-[2-[7-[(3RS,4RS)-4-[4-(3-benzyloxy-propoxy)-phenyl]-piperidin-3-yloxymethyl]-naphthalen-2-yloxy]-ethyl]-4-methyl-piperazine hydrochloride (1:3)] | 8.30

Stronger by pIC50, values ahead:

pIC50 | Structure (SMILES)
8.70 | CN(C)CCN(C)C[C@@H]1CNC[C@H](OCc2ccc3ccccc3c2)[C@H]1c1ccc(OCCCOCc2ccccc2)cc1 (relative stereo) [II]
8.52 | O=C(Cc1ccc2ccccc2c1)[C@H]1CNCC[C@@H]1c1ccc(OCCCOCc2ccccc2)cc1 (relative stereo) [R, [(3RS,4SR)-4-[4-(3-benzyloxy-propoxy)-phenyl]-piperidin-3-yl]-2-naphthalen-2-yl-ethanone hydrochloride (1:1)]
9.10 | COc1ccccc1COCCCOc1ccc([C@H]2CCNC[C@@H]2OCc2ccc3ccncc3c2)cc1 (racemic) [XX, (3RS,4RS)-3-(isoquinolin-7-ylmethoxy)-4-[4-[3-(2-methoxy-benzyloxy)-propoxy]-phenyl]-piperidine]
